“And” between values parts separate entries of the source, which are not always exact repeats. Identical values can stand only once. Where a SMILES comes first, the peptide text is derived from it.
Legend:
human CIB2 = target: T1, human CIB2 (Homo sapiens, UniProt O75838); test: Cross-linking (DSBU)/MALDI-TOF-MS of CIB2 with α7B peptides; format: binding
T1 construct: made in house
T1 sequence (O75838 1-187): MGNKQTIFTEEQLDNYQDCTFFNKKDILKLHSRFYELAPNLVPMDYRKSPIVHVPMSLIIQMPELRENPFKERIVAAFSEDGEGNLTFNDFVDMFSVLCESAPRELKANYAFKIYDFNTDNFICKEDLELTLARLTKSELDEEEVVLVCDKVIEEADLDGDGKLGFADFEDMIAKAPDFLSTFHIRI
Experimental: CIB2 samples were cross-linked with DSBU in the presence of peptide α7B_M or α7B_Scrb as described in ref.[14] Briefly, 10 µM CIB2 was diluted in 20 mM HEPES, pH 7.5, 1 mM DTT, 1 mM Mg^2+ and 2 mM Ca^2+ and incubated with increasing peptide concentrations (5 µM, 10 µM, and 20 µM) for 10 min at room temperature. Then, 50-fold molar excess of DSBU was added and the reactions were conducted for 20 min at room temperature. As control, CIB2 was treated with DSBU without peptide. Reactions were blocked by adding ammonium bicarbonate to a final concentration of 20 mM.
Cross-linked CIB2 samples were desalted via ZipTip C4 tips (Millipore) before MALDI-TOF-MS analysis (Ultraflex III MALDI-TOF/TOF mass spectrometer, Bruker Daltonik, Bremen) was conducted using sinapinic acid as matrix. For further details see Supplementary Methods. Baseline subtraction and spectra smoothing were performed. […]
Cross-linking reactions and Mass Spectrometry
Cross-linking reactions were performed with 10 µM CIB2 (in 20 mM HEPES pH 7.5, 150 mM KCl, 1 mM DTT, 1 mM Mg2+, 2 mM Ca2+) and increasing concentrations of peptides α7B_M and α7B_Scrb, ranging from 0.5:1 to 2:1 peptide:protein ratios. After incubating the samples for 10 minutes at room temperature, DSBU (freshly prepared solution, dissolved in neat DMSO) was added to the mixture at 50-fold molar excess compared to CIB2 concentration. As the final volume of the reaction mixture was 50 µL, 1 µL of 25 mM DSBU was added to each sample. After 20 minutes, the cross-linking reactions were quenched by adding ammonium bicarbonate to a final concentration of 20 mM. Samples were incubated for 10 minutes before SDS-PAGE analysis was performed (data not shown). Samples for MALDI-TOF-MS measurements were desalted by ZipTip C4 (Millipore) and desalted protein was eluted with 70% (v/v) acetonitrile / 1% (v/v) formic acid. Each sample was mixed with a saturated solution of sinapinic acid (in 50% (v/v) methanol / 0.1% (v/v) TFA) at 1:1 ratio and spotted onto the MALDI target. […]

CIB2 = details: cited from earlier work
Source text: In a recent study[8] we investigated the capability of CIB2 to bind Ca^2+ and Mg^2+ thereby switching to a functionally distinct structural state. By integrating several biochemical and biophysical techniques we could establish that in the absence of any cation CIB2 forms a molten globule state that essentially lacks tertiary structure. […] This is quite unusual for Ca^2+-sensor pro ... || The second approach (direct peptide immobilization) led to very low signals and unreproducible results and was not pursued any further. […] In spite of such differences, which might ... || Interaction with α7B occurs in the region proximal to the membrane and not close to the C-terminus of the cytosolic domain of the integrin. The recognition between CIB2 and the α7B target is kinetically favored in the presence of physiological Mg^2+ and in the absence of Ca^2+ and it might induce binding of another CIB2 molecule. […] However, CIB2 per se binds a single peptide as a monomer, and the complex could then induce CIB2 dimerization, ...

Dynamic light scattering = format: physicochemical; details: 37 °C, fractions eluted from SEC (CIB2 A2 band), mean ± SEM; n = 15 (CIB2), 18 (Rec), 30 (CaM); 1.8 µM CIB2, 11 µM Rec, 7.4 µM CaM
Experimental: DLS measurements were performed using Zetasizer Nano-S (Malvern Instruments) at 37 °C by setting the same parameters for hydrodynamic diameter estimation as in ref.[26]. The estimation was based on 15–30 measurements, each consisting of at least 13 repetitions; data in Table 1 are reported as mean ± standard error of mean (SEM). DLS samples for each protein are the same collected in the Analytical Size Exclusion Chromatography.
His-tagged proteins, and then blocked via amine coupling as explained above. Preparation of the […]
approximately 2250 RU of CIB2 immobilized. In binding experiments, peptide concentration was varied in the 230 nM- 30 μM range for both α7B_M, and α7B_C, and experiments were repeated 4 times, both with the HBS buffer described above (containing 1 mM MgCl2) and with further addition of 2 mM CaCl2. Flow rate was set to 20 μl min−1 in all binding experiments, and the dissociation […]
Figure S1: DLS measurements of the SEC collected peaks. CIB2 band A2 (A), Rec (B) and CaM (C). Each data set consisted of 15-30 measurements (grey lines), with 13-15 repetitions each. Colored lines are referred to the average distribution. Temperature was set to 37°C and samples were equilibrated for 2 min before measurements.
Figure S2: Time-resolved proteolysis experiments. […]

In the case of `CSCC[C@H](NC(=O)[C@H](CCCCN)NC(=O)[C@H](Cc1c[nH]c2ccccc12)NC(=O)[C@H](CC(C)C)NC(=O)[C@H](CC(C)C)NC(=O)[C@H](CC(C)C)NC(C)=O)C(=O)NCC(=O)N[C@@H](Cc1ccccc1)C(=O)N[C@@H](Cc1ccccc1)C(=O)N[C@@H](CCCCN)C(=O)N[C@@H](CCCNC(=N)N)C(=O)N[C@@H](C)C(=O)N[C@@H](CCCCN)C(=O)N[C@@H](Cc1c[nH]cn1)C(=O)N1CCC[C@H]1C(=O)N[C@@H](CCC(=O)O)C(N)=O` [α7B_M] (Ac-LLLWKMGFFKRAKHPE-NH2), the “1:2 CIB2/peptide complex” value (human CIB2; 10 µM CIB2, 5, 10, 20 µM peptide, 50-fold DSBU, 1 mM Mg^2+, 2 mM Ca^2+) is reported as “A weak signal”, the “CIB2/peptide complex formation, 1:1” value (human CIB2; 10 µM CIB2, 5, 10, 20 µM peptide, 50-fold DSBU, 20 mM HEPES pH 7.5, 1 mM Mg^2+, 2 mM Ca^2+, room temperature) is reported as “a 1:1 CIB2/peptide complex appears in the mass spectra” and the “2:1 CIB2 and peptide complex” value (human CIB2; cross-linking experiments with DSBU, 1 mM Mg^2+, 2 mM Ca^2+) is reported as “never observed”. The “fluorescence titration of CIB2” value (CIB2; peptide intrinsic fluorescence) was “fluorescence variation upon titration with α7B_M was much higher”.

B1: CIB2: Recombinant human CIB2, Ca^2+ and Mg^2+-binding protein (protein)
chain: MGNKQTIFTEEQLDNYQDCTFFNKKDILKLHSRFYELAPNLVPMDYRKSPIVHVPMSLIIQMPELRENPFKERIVAAFSEDGEGNLTFNDFVDMFSVLCESAPRELKANYAFKIYDFNTDNFICKEDLELTLARLTKSELDEEEVVLVCDKVIEEADLDGDGKLGFADFEDMIAKAPDFLSTFHIRI
modifications: left off: His tag, end not stated, cleaved
For B1, the “oligomeric state by MS and XL-MS” value (human CIB2; all tested conditions, MS and XL-MS) is listed as “remained monomeric in all tested conditions”, the “DLS Ø hydrodynamic diameter” value (Dynamic light scattering) is listed as 5.4 ± 0.2 nm and 5.4 ± 0.2 [15] nm and the “CIB2:target peptide stoichiometry” value (CIB2; fluorescence) is listed as 2:1 stoichiometry.

Reference: PMC6803640, “Oligomeric state, hydrodynamic properties and target recognition of human Calcium and Integrin Binding protein 2 (CIB2)” (Scientific Reports, 2019)
